From patent publication US9096585B2 (Icahn School of Medicine at Mount Sinai, priority 2010, dated 2015) come the findings set out here.

The test system of the assay is influenza viruses. The format is cell-based, influenza virus.

Regarding `Cc1[nH]c2ccc(-c3nnc(SCC(=O)N4CCCC4)o3)cc2c1C` [Compound A3], the “generation of A3-resistant influenza viruses” value is “unsuccessful”.
